Reference: patent US9328142B2, “Lipopeptide inhibitors of RAS oncoproteins” (The United States of America, as represented by The …, priority 2011, dated 2016)

Key:
[1] = system: A549 human lung cancer cell line harboring constitutively active Ras mutant; assay: MTT growth inhibition assay, A549; type: cell-based; conditions: A549, MTT
Experimental: MCF-7 (breast cancer), T47D (breast cancer), Colo 205 (colon cancer), JM-1 (rat hepatoma), Sk Mel-2 (melanoma), PLC (human hepatoma), and HepG2 (human hepatoma) were obtained from American Type Cell Culture Collection. MCF-7 cells were grown in RPMI medium supplemented with 10% Fetal Bovine Serum. The remaining cell lines were grown in DMEM medium supplemented with 10% Fetal Bovine Serum. For the assay, cells were seeded into 96 well plates in medium containing 1% Fetal Bovine Serum and 100 μL of a cell suspension containing 5000 cells per well were used for each well. Cell growth was evaluated utilizing MTT ((3-(4,5-Dimethylthiazol-2-yl)-2,5-diphenyltetrazolium). The absorbance of the wells at 544 nm was determined by a FLUOstar/POLARstar Galaxy (BMG Lab Technologies GmbH) microplate reader.
The growth inhibitory activity of compounds was compared using the A549 human lung cancer cell line harboring constitutively active G12D Ras mutant with the help of an MTT assay. […] Stepwise extensions and truncations confirmed that the peptide had the optimal length (see Table 1).
The growth inhibitory activity of compounds was compared using the A549 human lung cancer cell line harboring constitutively active G12D Ras mutant with the help of an MTT assay.

[2] = system: DPPC bilayers containing 5% DPPE stabilized by MSP1 scaffold protein (nanodiscs); assay: SPR membrane binding to phospholipid bilayer nanodiscs
Experimental: Dipalmitoylphosphatidylcholine (DPPC) bilayers containing 5% dipalmitoyldiphosphatidylethanolamine (DPPE) stabilized by MSP1 scaffold protein were prepared. […] The preparation procedure involved mixing DPPC lipids with MSP1 at a 90:1 molar ratio in the presence of 100 mM cholate. Cholate was removed by slow dialysis. The assembled nanodiscs were purified by size-exclusion chromatography on a calibrated Superdex 200 column and immobilized on a surface plasmon resonance (SPR) sensor chip.
The presence of a primary amine group in DPPE provided a convenient site for cross-linking of nanodiscs to an SPR sensor chip. The noncross-linked dextran in the sample and reference cells was blocked by the coupling reagent. Four different peptides were used to study membrane binding by SPR. […] The HVR peptide lacks post-translational modifications present in K-Ras4B. The second peptide is the HVR peptide conjugated to S-farnesyl L-cysteine methyl ester via a bifunctional cross-linker Sulfosuccinimidyl-4-(N-maleimidomethyl)cyclohexane-1-carboxylate (Sulfo-SMCC) (Pierce). The other two peptides were kR-4A-C1 and kR-4B-C1.
In this situation determination of true dissociation constants was not feasible. Instead, the data were analyzed using the Hill equation. The Hill coefficient describes the degree of binding cooperativity.

[3] = system: HCC15 cells; assay: Wound closure assay; type: cell-based
[4] = system: HCC15 cells; assay: Cell migration, Boyden Chambers; type: cell-based; conditions: IC25 concentration
Experimental: (§1) The rate of migration and invasion was determined using Boyden Chambers (Millipore) in accordance with the manufacturer's protocol.

[5] = system: HCC15 cells; assay: Cell invasion, Boyden Chambers; type: cell-based; conditions: IC25 concentration
Experimental: Cell invasion assays were performed using the BD Biocoat Matrigel Invasion Chambers in accordance with the manufacturer's protocol. Cells (1×10^5/mL) were seeded onto 12-well cell culture chamber using inserts with 8 μm pore size polycarbonate membrane over a thin layer of Matrigel Basement Membrane Matrix without phenol red (BD Biosciences) diluted at 1:100 in PBS. Following incubation of the plates for 48 hours at 37° C., cells that invaded through the Matrigel and migrated to the lower surface of the membrane were stained with Giemsa solution, counted under the microscope in at least 10 different fields, and photographed. Three wells were examined for each condition and cell type, and the experiments were repeated in triplicate.
as §1

[6] = system: H358 human lung cancer cells with mutated K-Ras; assay: H358 tumor growth in nude mice; type: in vivo
Text: 2×10^6 H358 human lung cancer cells with mutated K-Ras were implanted subcutaneously (s.c.) in nude mice.

[7] = system: activated (GTP-bound) Ras in H358 human lung cancer cells; assay: Raf-RBD pull-down of active (GTP-bound) Ras; type: cell-based; conditions: 5 μM, varying exposure times
Experimental: H358 human lung cancer cells were grown in 6-well plates in DMEM medium containing 10% FBS. When the cells were about 70% confluent, the medium was replaced with DMEM containing 1% FBS. Two hours later, Ras inhibitors (kR-H6-48, HR-1, kR-4A-4, or kR-4B-2) were added to provide a final concentration of 5 μM.
After varying exposure times, the cells were rinsed with PBS and lysed. The lysates were cleared by centrifugation, incubated with immobilized Raf-RBD beads (which bind Ras) and analyzed by Western blot using manufacturer's protocols (Cytoskeleton, Inc., Denver, Colo.; Catalog No. BK008). The bands corresponding to active (GTP-bound) Ras were quantified with the help of MIPAV software.

[8] = system: human lung tumor cell lines (A549, H460, and H1944) and a mouse astrocytoma cell line (187436 tu2) expressing mutated K-Ras; assay: Growth inhibition in cell lines expressing mutated K-Ras (FIGS. 2 and 3); type: cell-based; conditions: A549, H460, H1944, 187436 tu2
Text: The cell line was generated from astrocytoma developed in a transgenic mouse harboring a G12D mutation in K-Ras and inactivation of the Rb gene.

[9] = system: Ras protein in H2009 and H2592 cells; assay: Western blot of Ras protein amount in cancer cells; type: cell-based; conditions: 0-3.0 μM, 18 hours
Experimental: A further experiment was undertaken to determine the effect of analogs of helix 6 and HVR on the amount of K-Ras protein in cancer cells. H2009 (lung adenocarcinoma cells) and H2592 (plural mesothelioma cells) were exposed to varying concentrations (0-3.0 μM) of kR-4A-3, kR-4B-3, or kR-H6-3 for 18 hours. The cells then were lysed and the lysate was analyzed by Western blot using anti-Ras mAb (Cell Biolabs, Inc.).

[10] = target: K-Ras in H2592 cells (Homo sapiens, UniProt P01116); conditions: GI50 concentrations, 18 hours
Text: Goat anti-mouse antibodies with Alexa Fluor TM 594 (red) were used to visualize the anti-Ras mouse mAb.

Substance	GI50 ([1]; Table 1 helix 6 derivatives) [µM]	other results
Ac-AFYTLVREIRQYR [kR-H6-17]	> 5	–
Ac-AFYTLVREIRQYRK (e-Pal) [kR-H6-8]	5	–
Ac-DAFYTLVREIRQYRK (e-Pal) [kR-H6-9]	0.5	–
Ac-DGTQGLNLNGLPK-e-Pal [NR-1]	–	GI50 ([1]; Table 2 HVR derivatives): > 10 µM
Ac-Doa-VEDAFYTLVREIRQYR [kR-H6-5]	3.3	–
Ac-GLNVKIKKK-e-Pal [kR-4A-8]	–	GI50 ([1]; Table 2 HVR derivatives): > 10 µM
Ac-KEKLNSKDGKKKKKKSKTKK-e-Pal [kR-4B-1]	–	GI50 ([1]; Table 2 HVR derivatives): 1.45 µM; cooperative interactions with membrane lipids ([2]; phospholipid bilayers): showed the best cooperative interactions with membrane lipids; cell motility (average closure) [3]: inhibition of HCC15 cell motility; cell migration (average number of cells migrated) [4]: inhibition of NCC15 cell migration; cell invasion (average number of cells migrated) [5]: inhibition of HCC15 cell invasion
Ac-KKKKSKTKK-e-Pal [kR-4B-7]	–	GI50 ([1]; Table 2 HVR derivatives): 2 µM
Ac-KKKSKTKK-e-Pal [kR-4B-8]	–	GI50 ([1]; Table 2 HVR derivatives): 2.3 µM; tumor weight at the time of sacrifice ([6]; 10 mg/kg s.c. every second day for 20 days, control 1.21 g): 0.35 g; tumor growth ([6]; 10 mg/kg s.c. near the tumor every second day for 20 days): abolished the growth
Ac-KLNSKDGKKKKKKSKTKK-e-Pal [kR-4B-2]	–	GTP-bound Ras (fraction of control) [7]: reduction in activated (GTP-bound) Ras
Ac-KTPGAVKIKKK-e-Pal [kR-4A-5]	–	GI50 ([1]; Table 2 HVR derivatives): 5 µM
Ac-KTPGLNVKIKKK-e-Pal [kR-4A-4]	–	GI50 ([1]; Table 2 HVR derivatives): 0.7 µM; growth inhibition (cell number, percent of control) [8]: growth inhibition; GTP-bound Ras (fraction of control) [7]: reduction in activated (GTP-bound) Ras
Ac-LRYQRIQRVLTYFAK-e-Pal (all D) [kR-H6-31]	0.025 ± 0.01	–
Ac-PGLNVKIKKK-e-Pal [kR-4A-7]	–	GI50 ([1]; Table 2 HVR derivatives): > 10 µM
Ac-RLKKISKEEKTPGSVKIKKK-e-Pal [kR-4A-1]	–	GI50 ([1]; Table 2 HVR derivatives): 3.1 µM; cell motility (average closure) [3]: inhibition of HCC15 cell motility; cell migration (average number of cells migrated) [4]: inhibition of NCC15 cell migration; cell invasion (average number of cells migrated) [5]: inhibition of HCC15 cell invasion
Ac-RYQRIQRVLTYFK-e-Pal (all D) [kR-H6-32]	0.01 ± 0.004	–
Ac-TPGLNVKIKKK-e-Pal [kR-4A-6]	–	GI50 ([1]; Table 2 HVR derivatives): > 10 µM
Ac-VEDAFYTLVREIRQYR [kR-H6-16]	> 5	–
Ac-VEDAFYTLVREIRQYRK (e-Pal) [kR-H6-7]	2.7	–
Ac-YQRIQRVLTYFAK-e-Pal (all D) [kR-H6-33]	0.0045 ± 0.001	–
Ac-YQRIQRVLTYFK-e-Pal (all D) [kR-H6-11]	0.01	–
Ac-YQRKQRVLTYFK-e-Pal (all D) [kR-H6-13]	0.06	–
Ac-YRLKKISKEEKTPGK-e-Pal [kR-4A-2]	–	GI50 ([1]; Table 2 HVR derivatives): 1.65 µM
Cap-YQRVQRVLTYF (all D) [kR-H6-49]	0.0008	–
Cap-YQRVQRVLTYW (all D) [kR-H6-41]	0.18 ± 0.04	–
HVR peptide: represents the hypervariable region of K-Ras-4B, residues 165 through 183; lacks post-translational modifications (QYRLKKISKEEKTPGCVKI; K-Ras4B; UniProt P01116 165-183, looked up, fragment) [reference compound]	–	Hill coefficient (membrane binding cooperativity) ([2]; Hill equation): 1.106±0.001

Substance	GI50 ([1]; Table 1 helix 6 derivatives) [µM]	other results
Lau-HQRVQRVLTYF (all D) [kR-H6-43]	0.3 ± 0.05	–
Lau-WQRVQRVLTYF (all D) [kR-H6-44]	0.001 ± 0.001	–
Lau-YKRVQRVLTYF (all D) [kR-H6-42]	0.3 ± 0.05	–
Lau-YQRVQRVLTYF (all D) [kR-H6-38]	0.015	–
Lau-YQRVQRVLTYFA (all D) [kR-H6-47]	0.001 ± 0.001	–
Lau-YQRVQRVLTYW (all D) [kR-H6-39]	0.09 ± 0.015	–
Myr-YQRVQRVLTYW (all D) [kR-H6-40]	0.02 ± 0.01	–
Oct-YQRVQRVLTYF (all D) [kR-H6-50]	0.004 ± 0.001	–
Pal-Aib-YQRIQRVLTYF (all D) [kR-H6-35]	0.45 ± 0.05	–
Pal-KTKSKKKKK-NH2 All-D [kR-4B-6]	–	GI50 ([1]; Table 2 HVR derivatives): 1.7 µM
Pal-KVEDAFYTLVREIRQYR [kR-H6-4]	> 5	–
Pal-LRYQRIERVLTYFADEV (all D) [kR-H6-2]	0.3	–
Pal-RYQRIERVLTYFADEV (all D) [kR-H6-1]	1.35	–
Pal-RYQRIQRVLTYF (all D) [kR-H6-20]	0.25	–
Pal-RYQRIQRVLTYFA (all D) [kR-H6-19]	> 1	–
Pal-YQRIQRVLTYF (all D) [kR-H6-34]	0.018 ± 0.005	–
Pal-YQRIQRVLTYFA (all D) [kR-H6-21]	0.03	–
Pal-YQRKQRVLTYF (all D) [kR-H6-14]	0.04	–
Pal-YQRVQRVLTYF (all D) [kR-H6-36]	0.01 ± 0.005	–
Pal-e-KAFYTLVREIRKHK [kR-H6-18]	> 1	–
Pal-e-KAFYTLVREIRQY [kR-H6-10]	0.3	–
Pal-e-KAFYTLVREIRQYRL [kR-H6-27]	0.28 ± 0.03	–
Pal-e-KAFYTLVRQIRQYRL [kR-H6-28]	0.25 ± 0.05	–
Pal-e-KFYTLVREIRQYR [kR-H6-12]	0.18	–
e-Pal-KRYQRIERVLTYFADEV (all D) [kR-H6-3]	> 5	amount of Ras protein [9]: reduced the amount of Ras protein in lung cancer cells in a concentration-dependent manner; Ras protein levels by immunostaining [10]: reduction in protein levels; pattern of K-Ras distribution [10]: lack of characteristic punctuate pattern of K-Ras distribution
